What was measured:
[1] = test system: Clostridium difficile UK1; experiment: Minimum inhibitory concentration; format: cell-based; details: THyex medium; anaerobic chamber at 37° C.; peptide about 90% purity
Description: (§1) Wild-type mutacin 1140, mutacin 1140 with a F1I mutation, mutacin 1140 with a W4A mutation, and mutacin 1140 with a R13D mutation was purified to about 90% purity (measured via HPLC). The minimum inhibitory concentration (MIC) of MU1140 and variants of MU1140 was determined against several bacteria. The MIC is the lowest concentration of MU1140 that will inhibit the visible growth of a microorganism after 24 hour incubation. A lower MIC is an indication of greater inhibitory activity. Preparation of the antimicrobial agent and bacterial inoculum for minimum inhibitory concentrations (MICs) was performed by following the method described in Clinical Laboratory Standard Institute (CLSI) M07-8A with some minor modifications. Streptococcus mutans UA159 was tested overnight in a shaking incubator to maintain uniform dispersion of the bacteria. Clostridium difficile UK1 was tested in an anaerobic chamber at 37° C. The medium used was THyex.

[2] = test system: Streptococcus mutans UA159; experiment: Minimum inhibitory concentration; format: cell-based; details: THyex medium; overnight in shaking incubator; peptide about 90% purity
Description: as §1

[3] = test system: Micrococcus luteus ATCC10240; experiment: Minimum inhibitory concentration; format: cell-based; details: THyex medium; 24 hour incubation; peptide about 90% purity
Description: as §1

[4] = test system: Streptococcus pneumonia FA1; experiment: Minimum inhibitory concentration; format: cell-based; details: THyex medium; 24 hour incubation; peptide about 90% purity
Description: as §1

[5] = test system: Staphylococcus aureus FA1; experiment: Minimum inhibitory concentration; format: cell-based; details: THyex medium; 24 hour incubation; peptide about 90% purity
Description: as §1

[6] = test system: Gram-negative bacteria or yeast; details: cited from earlier work
[7] = test system: vancomycin-resistant Enterococcus faecium (VREF); details: cited from earlier work
S. pneumonia = details: cited from earlier work
[8] = test system: multi-drug resistant strains of S. aureus; details: cited from earlier work
Staphylococcus aureus = details: pilot study; 60 times the LD50 of Staphylococcus aureus administered; cited from earlier work
[9] = murine models, cited from earlier work
[10] = cited from earlier work
[11] = test system: all Gram positive bacteria against which it was tested; details: cited from earlier work
[12] = test system: S. aureus or Streptococcus pneumoniae; details: repeated subculture in medium with sub-lethal concentrations; cited from earlier work

For “Mu1140 Wild-type: wild-type lantibiotic MU1140 (SEQ ID NO:17) produced by Streptococcus mutans strain JH1140 (FKAWXLAXPGAARXGAFNAYA; not fully specified; lantibiotic post-translational modifications; DISULFID (3)..(7); (5)..(5) X is Dha amino acid; DISULFID (8)..(11); MOD_RES (8)..(8) Abu; (14)..(14) X is Dhb amino acid; DISULFID (16)..(21); (19)..(21) lanthionine bridge)”, which “MIC Clostridium difficile UK1” value [1] is on record?
Its value is 16.

And the “MIC Streptococcus mutans UA159” value [2]?
The value was 2.

What about the “MIC Micrococcus luteus ATCC10240” value [3] of the same substance?
Its value is 0.0625.

And the “MIC Streptococcus pneumonia FA1” value [4]?
Its value is 0.5.

And the “MIC Staphylococcus aureus FA1” value [5]?
Its value is 16.

What about the activity [6] of the same substance?
The activity was “no activity”.

And the “mode of antibacterial action” value [7]?
The value was “bacteriostatic”.

What about the “mode of antibacterial action” value (S. pneumonia) of the same substance?
Its value is “bactericidal”.

What about the “mode of antibacterial action” value [8] of the same substance?
The value was “bactericidal”.

And the efficacy (Staphylococcus aureus)?
Its efficacy is “efficacy was achieved”.

And the toxicity ([9]; intravenous route)?
Its toxicity is “low toxicity”.

What about the distribution [9] of the same substance?
The distribution was “distributed into all body compartments”.

What about the cytotoxicity in vitro [10] of the same substance?
The cytotoxicity in vitro was “low cytotoxicity”.

And the “minimum inhibitory concentration (MIC)” value [11]?
The value was “submicromolar”.

What about the “development of significant resistance” value [12] of the same substance?
The value was “not observed”.
